From patent publication EP2913057B1, “Cancer peptide therapeutics” (Indiana University Research and Technology Corporation, priority 2008, dated 2010)
“Also recorded” adds a separate entry of the source. Residues, ends and D or L forms follow the SMILES beside them.

Key:
MCF 7 (breast cancer) = experiment: Cytotoxic effect in malignant breast cells, cell death by flow cytometry; assay type: cell-based; set-up: dose or concentration left out as unconfirmed; details: 48 hours
Method: The R9-caPeptide was evaluated for cytotoxic effects in non-malignant (MCF 10A) and malignant (MCF 7) breast cells (Table 6). The cells were treated with 50 mM R9-caPeptide for 48 hours and the extent of cell death was evaluated by flow cytometry. […] The significant level of cytotoxicity in breast cancer cells is likely due to enhanced binding interaction of caPeptide with specific DNA repair proteins in these cells, as indicated for example by the observed preferential binding of caPCNA for XPG protein, leading to an inhibition of DNA repair in these cells, and ultimately cell death.

U937 cells [1] = experiment: Cytotoxicity (apoptosis / cell death) of R9-linked caPCNA peptides by flow cytometry; assay type: cell-based; details: 24 hours; for % cancer cell death: 30mM of peptide, flow cytometry
Method: First, it was tested whether or not the R9 sequence alone had any cytotoxic effect in U937 cells. The U937 cells were treated with up to 100mM of the R9 sequence for 24 hours.
Once it was established that the R9 sequence promoted cellular uptake of the peptide, increasing amounts of R9-caPep were added to U937 cells to determine if the peptide's uptake would have any cytotoxic effect.
To verify that the cytotoxicity of the R9-caPep was due to the PCNA peptide sequence itself, a scrambled peptide using the same eight amino acids, R9-Scrambled, was prepared (Table 3).
The cancer associated epitope of PCNA is also part of the flexible IDCL region of PCNA. This region of PCNA is considered to have a disordered structure. Disordered regions in proteins are usually associated with protein-to-protein interaction sites. […] To determine which amino acids in the R9-caPep sequence are necessary for binding of the peptide to these proteins, peptide constructs were generated that mutated each aminoacid individually to an alanine (Table 3). Each alanine mutant peptide of caPCNA was used to treat U937 cells for 24 hours. An amino acid that is important to protein binding would presumably show decreased cell cytotoxicity when it is substituted with an alanine. Those amino acids which are not critical for binding could be anticipated to show a cytotoxic level similar to that of the unsubstituted peptide. For a comparison of the potential cytotoxic effect of each of the alanine substituted R9-linked caPeptides, U937 cells were treated with 30mM of peptide. […] It was observed that peptides containing an alanine substituted at position aa126 or aa133 show little cytotoxic activity and therefore were likely important for the peptide's activity.

U937 cells [2] = experiment: cells; details: Homo sapiens, U-937, read-out: cell death

Compound	% cancer cell death (U937 cells [1]) [%]	other results
CC[C@H](C)[C@H](NC(=O)CNC(=O)[C@H](CC(C)C)NC(=O)[C@H](CS)NC(=O)[C@H](CS)NC(=O)[C@@H](CCCNC(=N)N)NC(=O)[C@@H](CCCNC(=N)N)NC(=O)[C@@H](CCCNC(=N)N)NC(=O)[C@@H](CCCNC(=N)N)NC(=O)[C@@H](CCCNC(=N)N)NC(=O)[C@@H](CCCNC(=N)N)NC(=O)[C@@H](CCCNC(=N)N)NC(=O)[C@@H](CCCNC(=N)N)NC(=O)[C@H](N)CCCNC(=N)N)C(=O)N1CCC[C@H]1C(=O)N[C@@H](CCC(=O)O)C(=O)N[C@@H](CCC(N)=O)C(=O)N[C@@H](CCC(=O)O)C(=O)N[C@@H](Cc1ccc(O)cc1)C(=O)O [R9-caPep]	–	cytotoxicity for malignant breast cells (MCF7) relative to non-malignant breast cells (MCF10A) (MCF 7 (breast cancer)): approximately five times more cytotoxic
CC[C@H](C)[C@H](NC(=O)CNC(=O)[C@@H](N)CC(C)C)C(=O)N1CCC[C@H]1C(=O)N[C@@H](CCC(=O)O)C(=O)N[C@@H](CCC(N)=O)C(=O)N[C@@H](CCC(=O)O)C(=O)N[C@@H](Cc1ccc(O)cc1)C(=O)O [caPeptide] (H-LGIPEQEY-OH)	–	cytotoxic activity (apoptosis) (U937 cells [1]; up to 200mM of caPeptide): did not have any cytotoxic activity; also recorded: no increase in apoptosis was detected
COc1cccc2c1C(=O)c1c(O)c3c(c(O)c1C2=O)C[C@@](O)(C(=O)CO)C[C@@H]3O[C@H]1C[C@H](N)[C@H](O)[C@H](C)O1 [doxorubicin]	–	cytotoxicity at 0.1 µM (U937 cells [2]): 30%
RRRRRRRRR [R9, reference compound]	–	cytotoxic effect (apoptosis) (U937 cells [1]; up to 100mM of the R9 sequence): did not promote apoptosis; also recorded: did not cause an increase apoptosis
RRRRRRRRRCCAGIPEQEY [A1-sub. peptide, R9-linked caPCNA peptide, alanine at aa126]	8±9	–
RRRRRRRRRCCLAIPEQEY [A2-sub. peptide, R9-linked caPCNA peptide, alanine at aa127]	47±13	–
RRRRRRRRRCCLGAPEQEY [A3-sub. peptide, R9-linked caPCNA peptide, alanine at aa128]	21±12	–
RRRRRRRRRCCLGIAEQEY [A4-sub. peptide, R9-linked caPCNA peptide, alanine at aa129]	80±7	–
RRRRRRRRRCCLGIPAQEY [A5-sub. peptide, R9-linked caPCNA peptide, alanine at aa130]	45±14	–
RRRRRRRRRCCLGIPEAEY [A6-sub. peptide, R9-linked caPCNA peptide, alanine at aa131]	93±7	–
RRRRRRRRRCCLGIPEQAY [A7-sub. peptide, R9-linked caPCNA peptide, alanine at aa132]	88±4	–
RRRRRRRRRCCLGIPEQEA [A8-sub. peptide, R9-linked caPCNA peptide, alanine at aa133]	7±6	–
